This passage reports inhibition results from patent US20250091994A1, “RAS/RAF BINDING INHIBITOR COMPOUND” (NATIONAL UNIVERSITY CORPORATION KOBE UNIVERSITY, priority 2021, published 2025).

What all share (type): cell-based
Assay [1] concerns phosphorylated MEK (pMEK) in HL60 cells. Nature of the assay: Ras-Raf signaling inhibition at culture cell level, pMEK. The following applies: Homo sapiens, HL-60; HL60 (N-RasQ61L), 1 μM test compound, 3 hours. The protocol: (§1) The Ras-Raf signaling inhibitory activity of the compound of the present invention at a culture cell level was evaluated by the following method.
(§2) The HL60 cells described in Test Example 2 suspended in a medium containing 0.5% (v/v) FBS with each compound solution (final DMSO concentration: 1%), were seeded on a 12-well plate (2 to 4×10^5 cells/well), and the resulting mixture was then cultured at 37° C. in the presence of 5% CO2 for 3 hours.
(§3) After completion of the cell culture, proteins were extracted from the cells, using RIPA Buffer (Nacalai Tesque) containing a mixture of protease inhibitors and phosphatase inhibitors. An equivalent amount of protein was separated by standard SDS-PAGE and was then transferred onto a PVDF membrane. In order to detect the activation (phosphorylation) of MEK and ERK, downstream molecules of the Ras-Raf signaling pathway, the membrane was probed with 1000-fold diluted primary antibodies {phosphorylated MEK (pMEK: #9121), phosphorylated ERK (pERK: #9101), total MEK (tMEK: #9122), and total ERK (tERK: 9102); all from Cell signaling}, and then with a 1000-fold diluted horseradish peroxidase-labeled secondary antibody against rabbit immunoglobulin G. The immunoreactive signals were colored with EzWestLumi One (ATTO), and were then detected by Fusion FX (Vilber). Signal intensity was quantified by pixel counting. Inhibition by the test compound was determined according to the following equation: […]

For assay [2], the system named is Vemurafenib-resistant malignant melanoma cells A375R (BRafV600E). Nature of the assay: Cell growth inhibition, drug-resistant malignant melanoma A375R. Particulars: Homo sapiens, in the presence of 1 μM PLX (Vemurafenib), 72 hours. The protocol:
(§4) The human malignant melanoma cell lines A375 and HT 144, each having BRafV600E mutation, were cultured in a medium containing 10% FBS at 37° C. in the presence of 5% CO2. At the time point in which the cells became confluent, 1 μM Vemurafenib, a BRaf inhibitor, was added to the medium, and the cells were then cultured in the presence of Vemurafenib for 1 month or more (during which the medium was exchanged every 1 week), so as to acquire Vemurafenib-resistant malignant melanoma cells A375R and HT 144R. The resulting resistant cells were suspended in a medium containing 10% FBS, and then seeded on a 96-well plate to an amount of 1 to 2×10^4 cells/well. The cells were cultured at 37° C. in the presence of 5% CO2 overnight. Thereafter, the medium was exchanged with a medium containing 0.5% FBS, to which each compound solution (final DMSO concentration: 1%) and 1 μM Vemurafenib had been added, and the cells were then cultured at 37° C. in the presence of 5% CO2 for 72 hours.
(§5) Thereafter, the number of viable cells was measured using Cell Counting Reagent (Nacalai Tesque) in accordance with the manufacturer's instructions. Inhibition by the test compound was determined according to the following equation: […]
(§6) Hereafter, Inhibition (%) by 3.3 μM compound is shown.

The subject of assay [3] is large bowel cancer cells SW480 (K-RasG12V). Nature of the assay: Cell growth inhibition, adherent cells SW480. The following applies: Homo sapiens, 72 hours, read-out: SW480 (KRasG12V) % inhibition at 10 μM. The protocol:
(§7) The cell growth inhibitory activity of the compound of the present invention on human culture cells having active-type mutation in Ras was evaluated by the below-mentioned method using suspension cancer cells {acute lymphoblastic leukemia cells CCRF-CEM (K-RasG12D), promyelocytic leukemia cells HL60 (N-RasQ61L), acute lymphoblastic leukemia cells MOLT4 (N-RasG12C), and small cell lung cancer cells SHP77 (K-RasG12V)} and adherent cancer cells {large bowel cancer cells SW480 (K-RasG12V) and large bowel cancer cell SW620 (K-RasG12V)}.
(Case of adherent cells) The cells suspended in a medium containing 10% FBS (1 to 2×10^4 cells/well) were seeded on a 96-well plate, and were then cultured at 37° C. in the presence of […]. Thereafter, the medium was exchanged with a medium containing […], to which each compound solution (final DMSO concentration: […]) had been added, and the cells were then cultured at 37° C. in the presence of […] for 72 hours.
as §5

Assay [4] relates to large bowel cancer cell SW620 (K-RasG12V). Nature of the assay: Cell growth inhibition, adherent cells SW620. Particulars: Homo sapiens, SW-620; 1 μM, 72 hours; read-out: SW620 (KRasG12V) % inhibition at 1 μM. In outline:
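Adherent cells, 1 to 2×10^4 per well, grown overnight in 10% FBS, then exposed to compound in low-serum medium […] for 72 h at 37° C. Viable cells counted with Cell Counting Reagent; inhibition calculated relative to controls.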

The subject of assay [5] is promyelocytic leukemia cells HL60 (N-RasQ61L). Nature of the assay: Cell growth inhibition, suspension cells HL60. The following applies: Homo sapiens, HL-60, 72 hours; for inhibition at 10 µM: read-out: HL-60 (NRasQ61L) % inhibition at 10 μM (***); for inhibition at 1 µM: read-out: HL-60 (NRasQ61L) % inhibition at 1 μM. In outline:
(§8)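 Suspension cells, 2 to 4×10^4 per well, cultured with compound in medium with 0.5% FBS (1% DMSO final) for 72 h at 37° C, 5% CO2. Viable cells counted with Cell Counting Reagent; inhibition calculated relative to controls.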

The test system of assay [6] is phosphorylated ERK (pERK) in HL60 cells. Nature of the assay: Ras-Raf signaling inhibition at culture cell level, pERK. The following applies: Homo sapiens, HL-60; HL60 (N-RasQ61L), 1 μM test compound, 3 hours. On the procedure:
as §1, §2, §3

The subject of assay [7] is small cell lung cancer cells SHP77 (K-RasG12V). Nature of the assay: Cell growth inhibition, suspension cells SHP77. Particulars: Homo sapiens, 72 hours. The protocol:
as §7
(§9) (Case of suspension cells) The cells suspended in a medium containing 0.5% (v/v) fetal bovine serum (FBS) and each compound solution (final DMSO concentration: 1%) were seeded on a 96-well plate (2 to 4×10^4 cells/well), and the resulting mixture was then cultured at 37° C. in the presence of 5% CO2 for 72 hours.
as §5

Assay [8] concerns acute lymphoblastic leukemia cells CCRF-CEM (K-RasG12D). Nature of the assay: Cell growth inhibition, suspension cells CCRF-CEM. The following applies: Homo sapiens, 72 hours; for inhibition at 1 µM: read-out: CCRF-CEM (KRasG12D) % inhibition at 1 μM. The method in brief:
as §8

The test system of assay [9] is Vemurafenib-resistant malignant melanoma cells HT 144R (BRafV600E). Nature of the assay: Cell growth inhibition, drug-resistant malignant melanoma HT144R. The following applies: Homo sapiens, in the presence of 1 μM PLX (Vemurafenib), 72 hours. The protocol:
as §4, §5, §6

Assay [10] relates to acute lymphoblastic leukemia cells MOLT4 (N-RasG12C). Nature of the assay: Cell growth inhibition, suspension cells MOLT4. The following applies: Homo sapiens, MOLT-4; 3.3 μM (*), 72 hours; read-out: MOLT-4 (NRasG12C) % inhibition at 3.3 μM (*). On the procedure:
as §7, §9, §5

A word on the inhibition: it is how much of the control response was suppressed.

As for `COc1cc(/C=C2/C(=O)c3ccccc3N2C(C)=O)ccc1OCC(N)=O` [Example 1, (Z)-2-(4-((1-acetyl-3-oxoindolin-2-ylidene)methyl)-2-methoxyphenoxy)-acetamide], the inhibition at 1 µM in assay [1] worked out at 30%; in assay [4], 53%; in [6] it was 61%; in assay [7] (1 μM, read-out: SHP77 (KRasG12V) % inhibition at 1 μM), 73%; in assay [8] it was 51%. Further, the results for the inhibition at 3.3 µM in [2], in [9] and in [10] were 28%, 66% and 88%, respectively. In addition, the inhibition at 10 µM in assay [3] amounted to 50%; in assay [5], 95%.
Turning to `CC(=O)N1/C(=C/c2nc3cc(C(=O)N4CCOCC4)ccc3s2)C(=O)c2ccccc21` [Example 48, (E)-1-acetyl-2-((5-(morpholine-4-carbonyl)benzo [d]thiazol-2-yl)-methylene)indolin-3-one], the inhibition at 1 µM in assay [1] was 81%; in [6] it was 96%; in assay [8] it was 69%. In addition, the inhibition at 10 µM in assay [5] amounted to 100%.
On to `CC(=O)N1/C(=C/c2nc3ccc(C(=O)N4CCOCC4)cc3s2)C(=O)c2ccccc21` [Example 58, (E)-1-acetyl-2-((6-(morpholine-4-carbonyl)benzo [d]thiazol-2-yl)-methylene)indolin-3-one], for which the inhibition at 1 µM in assay [1] was 72%; in [6] it was 100%; in assay [8], 45%. In addition, the inhibition at 10 µM in assay [5] turned out to be 99%.
For the compound `CC(=O)N1/C(=C/c2ncc(C(=O)N3CCOCC3)s2)C(=O)c2ccccc21` [Example 68, (E)-1-acetyl-2-((5-(morpholine-4-carbonyl)thiazol-2-yl)methylene)-indolin-3-one], the values for the inhibition at 1 µM in assay [1], in [5] and in assay [6] were 68%, 37% and 93%, respectively. Besides, the inhibition at 10 µM in [3] turned out to be 52%. For the same compound, the inhibition at 3.3 µM is 67% in assay [7] (3.3 μM (*), read-out: SHP77 (KRasG12V) % inhibition at 3.3 μM (*)) and 80% in [8] (3.3 μM (*), read-out: CCRF-CEM (KRasG12D) % inhibition at 3.3 μM(*)).
For `CCCCOc1cc(/C=C2/C(=O)c3ccccc3N2C(C)=O)nc2ccc(C(=O)N3CCOCC3)cc12` [Example 84, (Z)-1-acetyl-2-((4-butoxy-6-(morpholine-4-carbonyl)quinolin-2-yl)methylene)-indolin-3-one], the inhibition at 1 µM came to 58% in assay [1], 90% in assay [4], 96% in [5] and 63% in [6].
